Source: US20260240762A1, “COMPOUND AND FORMULATION FOR SYSTEMIC THERAPY BY ORAL TRANSMUCOSAL ADMINISTRATION” (CUROVIR AB, priority 2023, published 2026)

Columns and labels:
Type in all cases: biochemical
[1] = target: PI3KB (p110b/p85a) (Homo sapiens, UniProt P42338); assay: PI3 kinase inhibition, HTRF assay
Source text: (§1) Inhibition of PI3 kinases was studied using the HTRF (homogeneous time-resolved fluorescence) assay which is a universal method for identifying and characterizing the phosphotransferase activity induced by any ATP/ADP dependent target. The formation of ADP was detected by a specific monoclonal antibody labeled with Eu^3+ cryptate; the amount of ADP formed directly correlates with the amount of phosphorylated substrate in kinase assays.

[2] = target: PI3KA (p110a/p85a) (Homo sapiens, UniProt P42336); assay: PI3 kinase inhibition, HTRF assay
Chain of PI3KA (p110a/p85a) (P42336 whole entry): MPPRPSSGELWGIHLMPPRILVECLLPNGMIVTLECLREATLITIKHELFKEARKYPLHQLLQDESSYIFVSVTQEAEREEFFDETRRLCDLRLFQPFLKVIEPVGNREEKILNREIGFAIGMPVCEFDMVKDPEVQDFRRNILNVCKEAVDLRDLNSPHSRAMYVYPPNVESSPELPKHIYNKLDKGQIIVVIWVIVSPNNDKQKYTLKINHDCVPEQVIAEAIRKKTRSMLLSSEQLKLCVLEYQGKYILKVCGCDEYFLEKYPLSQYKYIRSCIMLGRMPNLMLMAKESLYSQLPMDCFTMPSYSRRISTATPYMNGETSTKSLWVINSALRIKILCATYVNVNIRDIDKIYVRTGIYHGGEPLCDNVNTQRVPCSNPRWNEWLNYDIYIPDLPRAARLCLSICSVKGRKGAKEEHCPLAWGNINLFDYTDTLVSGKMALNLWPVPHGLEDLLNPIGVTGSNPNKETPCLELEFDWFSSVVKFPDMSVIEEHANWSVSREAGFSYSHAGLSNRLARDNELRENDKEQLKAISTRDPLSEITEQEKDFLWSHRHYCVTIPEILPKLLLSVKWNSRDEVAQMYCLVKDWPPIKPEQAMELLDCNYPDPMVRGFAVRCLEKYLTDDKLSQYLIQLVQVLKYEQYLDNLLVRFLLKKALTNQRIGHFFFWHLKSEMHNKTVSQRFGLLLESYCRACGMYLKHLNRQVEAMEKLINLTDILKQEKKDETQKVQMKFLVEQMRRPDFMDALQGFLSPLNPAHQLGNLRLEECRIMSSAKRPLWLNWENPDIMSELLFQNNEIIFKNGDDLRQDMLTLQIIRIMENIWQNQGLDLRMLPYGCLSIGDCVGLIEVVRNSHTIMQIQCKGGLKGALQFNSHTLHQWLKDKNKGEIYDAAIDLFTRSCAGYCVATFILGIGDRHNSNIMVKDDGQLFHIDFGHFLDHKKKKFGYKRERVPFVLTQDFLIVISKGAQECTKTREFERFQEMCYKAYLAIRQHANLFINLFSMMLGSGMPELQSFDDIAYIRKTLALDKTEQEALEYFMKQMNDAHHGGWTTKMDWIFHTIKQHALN
Chain of PI3KA (p110a/p85a) (P27986 whole entry partner): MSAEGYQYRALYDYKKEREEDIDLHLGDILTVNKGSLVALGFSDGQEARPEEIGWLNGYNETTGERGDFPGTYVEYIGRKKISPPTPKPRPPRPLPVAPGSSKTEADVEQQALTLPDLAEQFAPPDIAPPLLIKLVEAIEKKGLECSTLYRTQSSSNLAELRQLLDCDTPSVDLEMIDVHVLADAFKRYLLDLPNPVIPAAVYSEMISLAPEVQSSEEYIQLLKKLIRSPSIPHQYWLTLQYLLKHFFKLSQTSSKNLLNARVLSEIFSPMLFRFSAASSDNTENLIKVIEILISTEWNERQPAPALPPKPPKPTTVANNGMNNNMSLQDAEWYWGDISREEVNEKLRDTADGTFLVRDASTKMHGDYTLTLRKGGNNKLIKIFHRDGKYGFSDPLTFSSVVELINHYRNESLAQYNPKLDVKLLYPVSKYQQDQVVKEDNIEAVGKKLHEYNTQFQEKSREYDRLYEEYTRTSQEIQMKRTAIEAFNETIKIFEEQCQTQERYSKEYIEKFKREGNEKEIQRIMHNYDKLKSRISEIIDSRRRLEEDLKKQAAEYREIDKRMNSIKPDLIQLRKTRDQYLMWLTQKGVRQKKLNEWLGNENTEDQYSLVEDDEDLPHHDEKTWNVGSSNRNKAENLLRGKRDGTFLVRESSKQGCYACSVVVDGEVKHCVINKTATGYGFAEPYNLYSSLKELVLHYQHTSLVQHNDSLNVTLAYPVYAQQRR
Source text: as §1

[3] = target: PI3K (p120g) (Homo sapiens, UniProt P48736); assay: PI3 kinase inhibition, HTRF assay; settings: not tested at concentration higher than 1 μM
Chain of PI3K (p120g) (P48736 whole entry): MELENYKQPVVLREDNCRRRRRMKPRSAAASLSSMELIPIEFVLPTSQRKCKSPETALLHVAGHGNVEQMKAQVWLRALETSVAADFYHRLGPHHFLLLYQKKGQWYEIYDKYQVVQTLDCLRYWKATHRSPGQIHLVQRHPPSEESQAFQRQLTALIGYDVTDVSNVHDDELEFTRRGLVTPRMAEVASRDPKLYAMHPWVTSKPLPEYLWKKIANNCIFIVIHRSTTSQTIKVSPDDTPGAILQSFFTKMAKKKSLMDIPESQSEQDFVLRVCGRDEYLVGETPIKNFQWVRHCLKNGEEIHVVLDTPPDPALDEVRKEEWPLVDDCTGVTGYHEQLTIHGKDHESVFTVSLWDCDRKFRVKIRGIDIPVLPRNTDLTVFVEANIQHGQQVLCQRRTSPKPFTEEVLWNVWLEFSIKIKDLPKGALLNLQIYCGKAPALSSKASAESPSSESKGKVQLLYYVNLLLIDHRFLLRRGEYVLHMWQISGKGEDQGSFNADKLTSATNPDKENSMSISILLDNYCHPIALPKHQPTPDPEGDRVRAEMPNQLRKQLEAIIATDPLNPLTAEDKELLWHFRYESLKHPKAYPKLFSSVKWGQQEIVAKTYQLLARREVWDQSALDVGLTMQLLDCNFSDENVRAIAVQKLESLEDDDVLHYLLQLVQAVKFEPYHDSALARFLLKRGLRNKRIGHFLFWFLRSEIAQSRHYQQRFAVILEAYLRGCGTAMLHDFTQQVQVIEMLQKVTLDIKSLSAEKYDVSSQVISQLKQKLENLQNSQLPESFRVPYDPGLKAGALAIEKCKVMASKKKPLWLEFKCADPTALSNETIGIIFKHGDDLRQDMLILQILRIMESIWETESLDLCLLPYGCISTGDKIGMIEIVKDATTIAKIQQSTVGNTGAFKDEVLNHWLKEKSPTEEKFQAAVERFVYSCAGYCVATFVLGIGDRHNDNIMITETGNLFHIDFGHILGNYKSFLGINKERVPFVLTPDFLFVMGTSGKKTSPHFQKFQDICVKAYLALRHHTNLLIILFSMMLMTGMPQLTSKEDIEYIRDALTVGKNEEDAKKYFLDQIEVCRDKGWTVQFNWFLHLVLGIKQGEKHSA
Source text: as §1

[4] = target: PI4K2B (Homo sapiens, UniProt Q8TCG2); assay: PI4 kinase inhibition, ADP-Glo Kinase assay; settings: 60 min, 10 μM ATP, not tested at concentration higher than 10 μM
Description: (§2) Inhibition of PI4 kinases was performed with the ADP-Glo™ Kinase assay which measures the ADP formed from a kinase reaction, where ADP is converted into ATP and then converted into light by Ultra-Glo™ Luciferase. Reactions were carried out for 60 min at 10 μM ATP. The luminescent signal produced in reaction is proportional to the kinase activity.

[5] = target: PI4K2A (Homo sapiens, UniProt Q9BTU6); assay: PI4 kinase inhibition, ADP-Glo Kinase assay; settings: 60 min, 10 μM ATP, not tested at concentration higher than 10 μM
Description: as §2

[6] = target: PI4KB (Homo sapiens, UniProt Q9UBF8); assay: PI4 kinase inhibition, ADP-Glo Kinase assay; settings: 60 min, 10 μM ATP
Chain of PI4KB (Q9UBF8 whole entry, species assumed): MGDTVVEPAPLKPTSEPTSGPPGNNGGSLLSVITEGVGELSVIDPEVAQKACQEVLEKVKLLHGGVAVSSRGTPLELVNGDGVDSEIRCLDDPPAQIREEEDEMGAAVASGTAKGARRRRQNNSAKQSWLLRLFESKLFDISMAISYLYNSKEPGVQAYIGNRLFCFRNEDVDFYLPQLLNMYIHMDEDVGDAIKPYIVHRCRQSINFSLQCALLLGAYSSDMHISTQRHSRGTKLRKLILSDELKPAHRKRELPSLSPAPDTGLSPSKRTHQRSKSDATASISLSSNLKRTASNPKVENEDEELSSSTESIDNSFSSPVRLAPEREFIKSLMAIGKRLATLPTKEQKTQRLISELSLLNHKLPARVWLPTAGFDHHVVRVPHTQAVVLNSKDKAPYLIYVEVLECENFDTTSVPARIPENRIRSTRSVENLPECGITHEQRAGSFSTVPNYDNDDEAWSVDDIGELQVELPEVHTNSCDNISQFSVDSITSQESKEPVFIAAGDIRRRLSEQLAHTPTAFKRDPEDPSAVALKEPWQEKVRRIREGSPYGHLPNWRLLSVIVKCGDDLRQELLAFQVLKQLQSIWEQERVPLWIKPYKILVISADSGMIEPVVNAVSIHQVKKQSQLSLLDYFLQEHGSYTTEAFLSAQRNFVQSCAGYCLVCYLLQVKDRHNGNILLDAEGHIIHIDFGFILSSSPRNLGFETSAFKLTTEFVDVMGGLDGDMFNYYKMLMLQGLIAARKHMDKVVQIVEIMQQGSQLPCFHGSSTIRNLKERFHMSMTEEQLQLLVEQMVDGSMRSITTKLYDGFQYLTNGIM
Description: as §2

[7] = target: PI4KA (Homo sapiens, UniProt P42356); assay: PI4 kinase inhibition, ADP-Glo Kinase assay; settings: 60 min, 10 μM ATP
Description: as §2

Chain of PI3KB (p110b/p85a) (P42338 whole entry): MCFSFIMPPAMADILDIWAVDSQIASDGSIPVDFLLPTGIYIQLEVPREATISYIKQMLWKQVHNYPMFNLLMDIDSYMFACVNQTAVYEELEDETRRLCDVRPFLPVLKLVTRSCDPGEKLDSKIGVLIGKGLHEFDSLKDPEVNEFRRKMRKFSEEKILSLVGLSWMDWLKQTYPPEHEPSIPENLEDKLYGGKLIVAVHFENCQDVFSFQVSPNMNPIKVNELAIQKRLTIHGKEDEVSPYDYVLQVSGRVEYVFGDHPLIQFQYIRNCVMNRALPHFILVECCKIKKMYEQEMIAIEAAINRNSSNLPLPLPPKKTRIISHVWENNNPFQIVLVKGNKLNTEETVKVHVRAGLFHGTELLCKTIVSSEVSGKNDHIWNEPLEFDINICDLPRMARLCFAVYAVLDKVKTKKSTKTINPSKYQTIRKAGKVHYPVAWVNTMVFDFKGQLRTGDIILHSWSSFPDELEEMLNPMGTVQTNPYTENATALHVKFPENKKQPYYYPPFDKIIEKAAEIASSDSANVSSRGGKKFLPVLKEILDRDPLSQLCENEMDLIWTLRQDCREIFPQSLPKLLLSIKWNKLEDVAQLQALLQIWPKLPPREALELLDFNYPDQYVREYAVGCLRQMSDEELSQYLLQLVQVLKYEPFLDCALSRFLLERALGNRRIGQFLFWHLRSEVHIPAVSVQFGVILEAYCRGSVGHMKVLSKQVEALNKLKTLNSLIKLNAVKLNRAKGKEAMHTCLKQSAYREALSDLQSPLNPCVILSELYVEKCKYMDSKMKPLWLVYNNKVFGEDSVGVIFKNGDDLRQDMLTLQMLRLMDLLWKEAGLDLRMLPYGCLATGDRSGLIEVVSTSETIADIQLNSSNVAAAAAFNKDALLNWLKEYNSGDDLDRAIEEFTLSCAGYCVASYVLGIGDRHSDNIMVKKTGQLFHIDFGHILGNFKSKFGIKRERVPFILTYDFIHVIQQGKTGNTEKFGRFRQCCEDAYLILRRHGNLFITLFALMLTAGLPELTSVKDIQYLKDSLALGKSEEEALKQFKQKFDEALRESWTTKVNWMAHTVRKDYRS
Chain of PI3KB (p110b/p85a) (P27986 whole entry partner): as the sequence (P27986 whole entry partner) above

IC50 [1]: 5.4 µM | IC50 [2]: 3.4 µM | IC50 [3]: > 1 µM | IC50 [4]: > 10 µM | IC50 [5]: > 10 µM | IC50 [6]: 0.0006 µM | IC50 [7]: 1.1 µM
Compound: Cc1cc(CNc2cc(C)nc3c(-c4ccc5c(c4)c(C)nn5C)c(C)nn23)ccn1 [3-(1,3-dimethyl-1H-indazol-5-yl)-2,5-dimethyl-N-[(2-methylpyridin-4-yl)methyl]pyrazolo[1,5-a]pyrimidin-7-amine]
